Test results taken from ChEMBL document CHEMBL3885881, “DrugMatrix”.

Species on record: Rattus norvegicus
Experiment: DrugMatrix - Regimen: Daily Repeat
Assay type: toxicity, organism-based, Sprague-Dawley
Set-up: regimen Daily Repeat, gender Male, age 6-8 weeks
Conditions: in vivo, iv, vehicle 100 % SALINE; for ABSOLUTE BASOPHIL / ABSOLUTE EOSINOPHIL / ABSOLUTE LYMPHOCYTE / ABSOLUTE MONOCYTE / ABSOLUTE SEGMENTED NEUTROPHIL / BASOPHIL / EOSINOPHIL / ERYTHROCYTE COUNT / HEMATOCRIT / HEMOGLOBIN / LEUKOCYTE COUNT / LYMPHOCYTE / MEAN CORPUSCULAR HEMOGLOBIN / MEAN CORPUSCULAR HEMOGLOBIN CONCENTRATION / MEAN CORPUSCULAR VOLUME / MONOCYTE / NEUTROPHIL / NUCLEATED RED BLOOD CELLS / PLATELET COUNT: tissue Blood; for ALANINE AMINOTRANSFERASE / ALBUMIN / ALKALINE PHOSPHATASE / ASPARTATE AMINOTRANSFERASE / BLOOD UREA NITROGEN / CARBON DIOXIDE / CHLORIDE / CHOLESTEROL / CREATINE PHOSPHOKINASE / CREATININE / GLUCOSE / LACTATE DEHYDROGENASE / LIPASE / PHOSPHORUS / POTASSIUM / SODIUM / TOTAL BILIRUBIN / TOTAL PROTEIN / URIC ACID: tissue Plasma
[1] = 0 mg/kg, 72 h, dose level Control, time 3 day
[2] = 0 mg/kg, 120 h, dose level Control, time 5 day
[3] = 7 mg/kg, 72 h, dose level Low, time 3 day

## CC(=O)N[C@@H]1[C@H](Oc2c3cc4cc2Oc2ccc(cc2Cl)[C@@H](O[C@@H]2O[C@@H](CO)[C@@H](O)[C@H](O)[C@@H]2NC(C)=O)[C@@H]2NC(=O)[C@H](NC(=O)[C@@H]4NC(=O)[C@H]4NC(=O)[C@@H](Cc5ccc(c(Cl)c5)O3)NC(=O)[C@H](N)c3ccc(O)c(c3)Oc3cc(O)cc4c3)c3ccc(O)c(c3)-c3c(O[C@H]4O[C@H](CO)[C@@H](O)[C@@H](O)[C@@H]4O)cc(O)cc3[C@@H](C(=O)O)NC2=O)O[C@@H](CO)[C@@H](O)[C@@H]1O
[1]
  ABSOLUTE BASOPHIL: 0 CELLS/uL
  ABSOLUTE EOSINOPHIL: 193.5 CELLS/uL
  ABSOLUTE LYMPHOCYTE: 15717.5 CELLS/uL
  ABSOLUTE MONOCYTE: 389.33 CELLS/uL
  ABSOLUTE SEGMENTED NEUTROPHIL: 1883 CELLS/uL
  BASOPHIL: 0%
  EOSINOPHIL: 1.17%
  ERYTHROCYTE COUNT: 5.68 x10E6/uL
  HEMATOCRIT: 35.83%
  HEMOGLOBIN: 13.48 G/DL
  LEUKOCYTE COUNT: 18.18 x10E3/uL
  LYMPHOCYTE: 86.67%
  MEAN CORPUSCULAR HEMOGLOBIN: 23.8 pg
  MEAN CORPUSCULAR HEMOGLOBIN CONCENTRATION: 37.68 G/DL
  MEAN CORPUSCULAR VOLUME: 63.27 fL
  MONOCYTE: 2.17%
  NEUTROPHIL: 10%
  NUCLEATED RED BLOOD CELLS: 0 /100WBC
  PLATELET COUNT: 1186.33 x10E3/uL
  ALANINE AMINOTRANSFERASE: 68.5 u/L
  ALBUMIN: 4.37 G/DL
  ALKALINE PHOSPHATASE: 396.33 u/L
  ASPARTATE AMINOTRANSFERASE: 92.5 u/L
  BLOOD UREA NITROGEN: 18 mg/dL
  CARBON DIOXIDE: 24.33 mmol/L
  CHLORIDE: 102.4 MEQ/L
  CHOLESTEROL: 67.17 mg/dL
  CREATINE PHOSPHOKINASE: 378.67 u/L
  CREATININE: 0.19 mg/dL
  GLUCOSE: 178.33 mg/dL
  LACTATE DEHYDROGENASE: 245.17 u/L
  LIPASE: 9.2 u/L
  PHOSPHORUS: 12.37 mg/dL
  POTASSIUM: 6.48 MEQ/L
  SODIUM: 143.28 MEQ/L
  TOTAL BILIRUBIN: 0.23 mg/dL
  TOTAL PROTEIN: 5.65 G/DL
  URIC ACID: 1.6 mg/dL
[2]
  ABSOLUTE BASOPHIL: 0 CELLS/uL
  ABSOLUTE EOSINOPHIL: 27.5 CELLS/uL
  ABSOLUTE LYMPHOCYTE: 13593.17 CELLS/uL
  ABSOLUTE MONOCYTE: 576 CELLS/uL
  ABSOLUTE SEGMENTED NEUTROPHIL: 1836.67 CELLS/uL
  BASOPHIL: 0%
  EOSINOPHIL: 0.17%
  ERYTHROCYTE COUNT: 5.99 x10E6/uL
  HEMATOCRIT: 37.42%
  HEMOGLOBIN: 13.78 G/DL
  LEUKOCYTE COUNT: 16.03 x10E3/uL
  LYMPHOCYTE: 85.17%
  MEAN CORPUSCULAR HEMOGLOBIN: 23.08 pg
  MEAN CORPUSCULAR HEMOGLOBIN CONCENTRATION: 36.83 G/DL
  MEAN CORPUSCULAR VOLUME: 62.6 fL
  MONOCYTE: 3.5%
  NEUTROPHIL: 11.17%
  NUCLEATED RED BLOOD CELLS: 0 /100WBC
  PLATELET COUNT: 1352.5 x10E3/uL
  ALANINE AMINOTRANSFERASE: 49.83 u/L
  ALBUMIN: 4.25 G/DL
  ALKALINE PHOSPHATASE: 331.33 u/L
  ASPARTATE AMINOTRANSFERASE: 86.17 u/L
  BLOOD UREA NITROGEN: 19.5 mg/dL
  CARBON DIOXIDE: 26.67 mmol/L
  CHLORIDE: 103 MEQ/L
  CHOLESTEROL: 67.5 mg/dL
  CREATINE PHOSPHOKINASE: 346.17 u/L
  CREATININE: 0.22 mg/dL
  GLUCOSE: 170.67 mg/dL
  LACTATE DEHYDROGENASE: 405.5 u/L
  LIPASE: 8.83 u/L
  PHOSPHORUS: 11.3 mg/dL
  POTASSIUM: 6.06 MEQ/L
  SODIUM: 143.4 MEQ/L
  TOTAL BILIRUBIN: 0.17 mg/dL
  TOTAL PROTEIN: 6.22 G/DL
  URIC ACID: 1.63 mg/dL
[3]
  ABSOLUTE BASOPHIL: 0 CELLS/uL
  ABSOLUTE EOSINOPHIL: 340.67 CELLS/uL
  ABSOLUTE LYMPHOCYTE: 16096 CELLS/uL
  ABSOLUTE MONOCYTE: 460.67 CELLS/uL
  ABSOLUTE SEGMENTED NEUTROPHIL: 1602.67 CELLS/uL
  BASOPHIL: 0%
  EOSINOPHIL: 1.67%
  ERYTHROCYTE COUNT: 5.86 x10E6/uL
  HEMATOCRIT: 37.6%
  HEMOGLOBIN: 14.23 G/DL
  LEUKOCYTE COUNT: 18.5 x10E3/uL
  LYMPHOCYTE: 87%
  MEAN CORPUSCULAR HEMOGLOBIN: 24.27 pg
  MEAN CORPUSCULAR HEMOGLOBIN CONCENTRATION: 37.87 G/DL
  MEAN CORPUSCULAR VOLUME: 64.13 fL
  MONOCYTE: 2.67%
  NEUTROPHIL: 8.67%
  NUCLEATED RED BLOOD CELLS: 0 /100WBC
  PLATELET COUNT: 1212.33 x10E3/uL
  ALANINE AMINOTRANSFERASE: 48 u/L
  ALBUMIN: 5.03 G/DL
  ALKALINE PHOSPHATASE: 341.33 u/L
  ASPARTATE AMINOTRANSFERASE: 90.67 u/L
  BLOOD UREA NITROGEN: 21.33 mg/dL
  CARBON DIOXIDE: 21.67 mmol/L
  CHLORIDE: 98.33 MEQ/L
  CHOLESTEROL: 73.33 mg/dL
  CREATINE PHOSPHOKINASE: 336 u/L
  CREATININE: 0.27 mg/dL
  GLUCOSE: 149 mg/dL
  LACTATE DEHYDROGENASE: 410.67 u/L
  LIPASE: 10 u/L
  PHOSPHORUS: 11.57 mg/dL
  POTASSIUM: 7.21 MEQ/L
  SODIUM: 141.2 MEQ/L
  TOTAL BILIRUBIN: 0.27 mg/dL
  TOTAL PROTEIN: 6.07 G/DL
  URIC ACID: 2.23 mg/dL
